The target in one experiment is human P2X3 receptor (Homo sapiens (Human), UniProt P56373). The experiment in a line: Intracellular calcium measurement (FLIPR, Fluo-4) of antagonist activity at human P2X3 receptors. It counts as cell-based. The following applies: read-out: hP2X3 IC50. The essentials: (§1)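 Cells expressing human P2X3 or P2X2/3, loaded with Fluo-4, preincubated 30 min at 37° C. with compound (1% DMSO final), then challenged with α,β-Me-ATP at its EC80. Peak FLIPR fluorescence over 90 sec gave % response; IC50, maximal inhibition and Hill slope from triplicates.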
Background: A change in cytosolic calcium serves as a functional read-out for many receptors and channels.

In a further experiment the target is human P2X2/3 receptor (Homo sapiens (Human), UniProt P56373+Q9UBL9). The experiment in a line: Intracellular calcium measurement (FLIPR, Fluo-4) of antagonist activity at human P2X2/3 receptors. To be noted: human P2X2/3, FLIPR calcium assay, agonist α,β-Me-ATP; read-out: hP2X2/3 IC50. It counts as cell-based. The essentials:
as §1

Setting [1] is: human P2X3, FLIPR calcium assay, agonist α,β-Me-ATP.

Like-named read-outs stand apart in the source and are kept apart here.

Chain of human P2X3 receptor (P56373 whole entry): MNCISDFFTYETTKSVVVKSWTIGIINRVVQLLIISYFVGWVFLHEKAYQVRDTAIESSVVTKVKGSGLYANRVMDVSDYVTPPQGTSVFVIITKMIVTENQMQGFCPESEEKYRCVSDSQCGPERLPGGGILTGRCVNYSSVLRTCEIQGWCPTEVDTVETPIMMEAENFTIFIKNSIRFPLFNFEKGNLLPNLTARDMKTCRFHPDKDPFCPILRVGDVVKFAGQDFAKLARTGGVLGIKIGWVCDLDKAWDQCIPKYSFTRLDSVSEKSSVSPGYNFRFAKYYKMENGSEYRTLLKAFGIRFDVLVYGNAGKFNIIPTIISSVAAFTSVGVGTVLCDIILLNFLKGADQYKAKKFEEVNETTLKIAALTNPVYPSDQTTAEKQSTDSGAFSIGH
Chain of human P2X2/3 receptor (P56373 whole entry): as above
Chain of human P2X2/3 receptor (Q9UBL9 whole entry): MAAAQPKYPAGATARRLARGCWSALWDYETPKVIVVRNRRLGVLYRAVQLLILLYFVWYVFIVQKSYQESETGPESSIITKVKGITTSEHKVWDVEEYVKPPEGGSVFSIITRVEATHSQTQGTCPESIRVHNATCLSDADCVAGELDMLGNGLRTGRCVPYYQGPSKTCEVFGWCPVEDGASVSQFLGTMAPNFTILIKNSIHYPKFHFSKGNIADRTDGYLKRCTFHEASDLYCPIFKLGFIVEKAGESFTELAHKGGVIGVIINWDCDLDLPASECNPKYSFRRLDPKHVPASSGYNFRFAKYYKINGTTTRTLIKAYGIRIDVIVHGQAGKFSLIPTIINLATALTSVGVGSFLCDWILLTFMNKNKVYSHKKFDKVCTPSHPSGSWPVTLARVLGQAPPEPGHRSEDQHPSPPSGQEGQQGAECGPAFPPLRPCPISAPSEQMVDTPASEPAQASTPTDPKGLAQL

In the case of `C[C@H](NC(=O)c1cc(OC[C@H]2CCOC2)cc(-c2ncc(C3CCC3)s2)c1)c1cnc(C(F)(F)F)nc1` [Example 239, 3-(5-cyclobutyl-1,3-thiazol-2-yl)-5-[(3S)-tetrahydrofuran-3-ylmethoxy]-N-{(1S)-1-[2-(trifluoromethyl)pyrimidin-5-yl]ethyl}benzamide], the IC50 is 1420 nM at human P2X3 receptor (setting [1]) and 2170 nM at human P2X2/3 receptor.

Regarding `CCc1cnc(-c2cc(O[C@@H]3CCOC3)cc(C(=O)N[C@H](C)c3ccc(C)nn3)c2)s1` [Example 240, 3-(5-ethyl-1,3-thiazol-2-yl)-N-[(1R)-1-(6-methylpyridazin-3-yl)ethyl]-5-[(3R)-tetrahydrofuran-3-yloxy]benzamide], the IC50 at human P2X3 receptor (setting [1]) is 12 nM; on human P2X2/3 receptor, 35 nM.

Regarding `CCc1cnc(-c2cc(O[C@@H]3CCOC3)cc(C(=O)N[C@H](C)c3cnc(C(F)(F)F)nc3)c2)s1` [Example 242, 3-(5-ethyl-1,3-thiazol-2-yl)-5-[(3R)-tetrahydrofuran-3-yloxy]-N-{(1R)-1-[2-(trifluoromethyl)pyrimidin-5-yl]ethyl}benzamide], the results for the IC50 on human P2X3 receptor (setting [1]) and on human P2X2/3 receptor were 2 nM and 22 nM, respectively.

Consider `Cc1ccc([C@@H](C)NC(=O)c2cc(O[C@@H]3CCOC3)cc(-c3ncc(C(C)C)s3)c2)nn1` [Example 246, N-[(1R)-1-(6-methylpyridazin-3-yl)ethyl]-3-[5-(propan-2-yl)-1,3-thiazol-2-yl]-5-[(3R)-tetrahydrofuran-3-yloxy]benzamide], for which the IC50 was determined as 266 nM at human P2X3 receptor (setting [1]) and 982 nM on human P2X2/3 receptor.

As to `CC(C)c1cnc(-c2cc(O[C@@H]3CCOC3)cc(C(=O)N[C@H](C)c3cnc(C(F)(F)F)nc3)c2)s1` [Example 248, 3-[5-(propan-2-yl)-1,3-thiazol-2-yl]-5-[(3R)-tetrahydrofuran-3-yloxy]-N-{(1R)-1-[2-(trifluoromethyl)pyrimidin-5-yl]ethyl}benzamide], the IC50 on human P2X3 receptor (setting [1]) came out at 44 nM; on human P2X2/3 receptor, 273 nM.

`CCc1cnc(-c2cc(O[C@H]3CCOC3)cc(C(=O)N[C@H](C)c3ccc(C)nn3)c2)s1` [Example 249, 3-(5-ethyl-1,3-thiazol-2-yl)-N-[(1R)-1-(6-methylpyridazin-3-yl)ethyl]-5-[(3S)-tetrahydrofuran-3-yloxy]benzamide]: the IC50 stood at 11 nM at human P2X3 receptor (setting [1]) and 57 nM on human P2X2/3 receptor.

Take `CCc1cnc(-c2cc(O[C@H]3CCOC3)cc(C(=O)N[C@H](C)c3cnc(C(F)(F)F)nc3)c2)s1` [Example 251, 3-(5-ethyl-1,3-thiazol-2-yl)-5-[(3S)-tetrahydrofuran-3-yloxy]-N-{(1R)-1-[2-(trifluoromethyl)pyrimidin-5-yl]ethyl}benzamide]: the figures for the IC50 at human P2X3 receptor (setting [1]) and at human P2X2/3 receptor were 5 nM and 38 nM, respectively.

Take `Cc1ccc([C@@H](C)NC(=O)c2cc(O[C@H]3CCOC3)cc(-c3ncc(C(C)C)s3)c2)nn1` [Example 255, N-[(1R)-1-(6-methylpyridazin-3-yl)ethyl]-3-[5-(propan-2-yl)-1,3-thiazol-2-yl]-5-[(3S)-tetrahydrofuran-3-yloxy]benzamide]: the IC50 stood at 254 nM at human P2X3 receptor (setting [1]) and 449 nM on human P2X2/3 receptor.

For the compound `CC(C)c1cnc(-c2cc(O[C@H]3CCOC3)cc(C(=O)N[C@H](C)c3cnc(C(F)(F)F)nc3)c2)s1` [Example 257, 3-[5-(propan-2-yl)-1,3-thiazol-2-yl]-5-[(3S)-tetrahydrofuran-3-yloxy]-N-{(1R)-1-[2-(trifluoromethyl)pyrimidin-5-yl]ethyl}benzamide], the results for the IC50 at human P2X3 receptor (setting [1]) and at human P2X2/3 receptor were 47 nM and 324 nM, respectively.

Turning to `CCc1cnc(-c2cc(OC[C@@H]3CCOC3)cc(C(=O)N[C@H](C)c3cnc(C)cn3)c2)s1` [Example 259, 3-(5-ethyl-1,3-thiazol-2-yl)-N-[(1R)-1-(5-methylpyrazin-2-yl)ethyl]-5-[(3R)-tetrahydrofuran-3-ylmethoxy]benzamide], the IC50 is 10 nM at human P2X3 receptor (setting [1]) and 102 nM on human P2X2/3 receptor.

As for `CCc1cnc(-c2cc(OC[C@@H]3CCOC3)cc(C(=O)N[C@H](C)c3cnc(C(F)(F)F)nc3)c2)s1` [Example 260, 3-(5-ethyl-1,3-thiazol-2-yl)-5-[(3R)-tetrahydrofuran-3-ylmethoxy]-N-{(1R)-1-[2-(trifluoromethyl)pyrimidin-5-yl]ethyl}benzamide], the IC50 at human P2X3 receptor (setting [1]) was found to be 2 nM; at human P2X2/3 receptor, 14 nM.

For `Cc1ccc([C@@H](C)NC(=O)c2cc(OC[C@@H]3CCOC3)cc(-c3ncc(C4CCC4)s3)c2)nn1` [Example 261, 3-(5-cyclobutyl-1,3-thiazol-2-yl)-N-[(1R)-1-(6-methylpyridazin-3-yl)ethyl]-5-[(3R)-tetrahydrofuran-3-ylmethoxy]benzamide], the IC50 is 45 nM on human P2X3 receptor (setting [1]) and 317 nM at human P2X2/3 receptor.

For the compound `C[C@@H](NC(=O)c1cc(OC[C@@H]2CCOC2)cc(-c2ncc(C3CCC3)s2)c1)c1cnc(C(F)(F)F)nc1` [Example 263, 3-(5-cyclobutyl-1,3-thiazol-2-yl)-5-[(3R)-tetrahydrofuran-3-ylmethoxy]-N-{(1R)-1-[2-(trifluoromethyl)pyrimidin-5-yl]ethyl}benzamide], the IC50 at human P2X3 receptor (setting [1]) was found to be 33 nM; on human P2X2/3 receptor it was 170 nM.

For `Cc1ccc([C@@H](C)NC(=O)c2cc(OC[C@@H]3CCOC3)cc(-c3ncc(C(C)C)s3)c2)nn1` [Example 264, N-[(1R)-1-(6-methylpyridazin-3-yl)ethyl]-3-[5-(propan-2-yl)-1,3-thiazol-2-yl]-5-[(3R)-tetrahydrofuran-3-ylmethoxy]benzamide], the IC50 is 81 nM on human P2X3 receptor (setting [1]) and 530 nM on human P2X2/3 receptor.

Regarding `CC(C)c1cnc(-c2cc(OC[C@@H]3CCOC3)cc(C(=O)N[C@H](C)c3cnc(C(F)(F)F)nc3)c2)s1` [Example 266, 3-[5-(propan-2-yl)-1,3-thiazol-2-yl]-5-[(3R)-tetrahydrofuran-3-ylmethoxy]-N-{(1R)-1-[2-(trifluoromethyl)pyrimidin-5-yl]ethyl}benzamide], the IC50 on human P2X3 receptor (setting [1]) amounted to 41 nM; on human P2X2/3 receptor, 367 nM.

Take `CCc1cnc(-c2cc(OC[C@H]3CCCO3)cc(C(=O)N[C@H](C)c3cnc(C)cn3)c2)s1` [Example 268, 3-(5-ethyl-1,3-thiazol-2-yl)-N-[(1R)-1-(5-methylpyrazin-2-yl)ethyl]-5-[(2R)-tetrahydrofuran-2-ylmethoxy]benzamide]: the IC50 at human P2X3 receptor came out at 14 nM; on human P2X2/3 receptor, 392 nM.

On to `CCc1cnc(-c2cc(OC[C@H]3CCCO3)cc(C(=O)N[C@H](C)c3cnc(C(F)(F)F)nc3)c2)s1` [Example 269, 3-(5-ethyl-1,3-thiazol-2-yl)-5-[(2R)-tetrahydrofuran-2-ylmethoxy]-N-{(1R)-1-[2-(trifluoromethyl)pyrimidin-5-yl]ethyl}benzamide], for which the IC50 came out at 2 nM at human P2X3 receptor (setting [1]) and 35 nM at human P2X2/3 receptor.

`Cc1ccc([C@@H](C)NC(=O)c2cc(OC[C@H]3CCCO3)cc(-c3ncc(C4CCC4)s3)c2)nn1` [Example 270, 3-(5-cyclobutyl-1,3-thiazol-2-yl)-N-[(1R)-1-(6-methylpyridazin-3-yl)ethyl]-5-[(2R)-tetrahydrofuran-2-ylmethoxy]benzamide]: the IC50 was 25 nM on human P2X3 receptor (setting [1]) and 100 nM on human P2X2/3 receptor.

As for `C[C@@H](NC(=O)c1cc(OC[C@H]2CCCO2)cc(-c2ncc(C3CCC3)s2)c1)c1cnc(C(F)(F)F)nc1` [Example 272, 3-(5-cyclobutyl-1,3-thiazol-2-yl)-5-[(2R)-tetrahydrofuran-2-ylmethoxy]-N-{(1R)-1-[2-(trifluoromethyl)pyrimidin-5-yl]ethyl}benzamide], the figures for the IC50 on human P2X3 receptor and at human P2X2/3 receptor were 19 nM and 128 nM, respectively.

As to `Cc1ccc([C@@H](C)NC(=O)c2cc(OC[C@H]3CCCO3)cc(-c3ncc(C(C)C)s3)c2)nn1` [Example 273, N-[(1R)-1-(6-methylpyridazin-3-yl)ethyl]-3-[5-(propan-2-yl)-1,3-thiazol-2-yl]-5-[(2R)-tetrahydrofuran-2-ylmethoxy]benzamide], the IC50 on human P2X3 receptor was determined as 28 nM; at human P2X2/3 receptor it was 254 nM.

Consider `CC(C)c1cnc(-c2cc(OC[C@H]3CCCO3)cc(C(=O)N[C@H](C)c3cnc(C(F)(F)F)nc3)c2)s1` [Example 275, 3-[5-(propan-2-yl)-1,3-thiazol-2-yl]-5-[(2R)-tetrahydrofuran-2-ylmethoxy]-N-{(1R)-1-[2-(trifluoromethyl)pyrimidin-5-yl]ethyl}benzamide], for which the IC50 on human P2X3 receptor came out at 21 nM; at human P2X2/3 receptor, 191 nM.

Turning to `CCc1cnc(-c2cc(OC[C@H]3CCOC3)cc(C(=O)N[C@H](C)c3cnc(C)cn3)c2)s1` [Example 277, 3-(5-ethyl-1,3-thiazol-2-yl)-N-[(1R)-1-(5-methylpyrazin-2-yl)ethyl]-5-[(3S)-tetrahydrofuran-3-ylmethoxy]benzamide], the IC50 at human P2X3 receptor (setting [1]) was 6 nM; on human P2X2/3 receptor, 96 nM.

For the compound `CCc1cnc(-c2cc(OC[C@H]3CCOC3)cc(C(=O)N[C@H](C)c3cnc(C(F)(F)F)nc3)c2)s1` [Example 278, 3-(5-ethyl-1,3-thiazol-2-yl)-5-[(3S)-tetrahydrofuran-3-ylmethoxy]-N-{(1R)-1-[2-(trifluoromethyl)pyrimidin-5-yl]ethyl}benzamide], the results for the IC50 on human P2X3 receptor (setting [1]) and on human P2X2/3 receptor were 2 nM and 23 nM, respectively.

For `Cc1ccc([C@@H](C)NC(=O)c2cc(OC[C@H]3CCOC3)cc(-c3ncc(C(C)C)s3)c2)nn1` [Example 279, N-[(1R)-1-(6-methylpyridazin-3-yl)ethyl]-3-[5-(propan-2-yl)-1,3-thiazol-2-yl]-5-[(3S)-tetrahydrofuran-3-ylmethoxy]benzamide], the IC50 is 115 nM at human P2X3 receptor (setting [1]) and 956 nM at human P2X2/3 receptor.

For the compound `CC(C)c1cnc(-c2cc(OC[C@H]3CCOC3)cc(C(=O)N[C@H](C)c3cnc(C(F)(F)F)nc3)c2)s1` [Example 281, 3-[5-(propan-2-yl)-1,3-thiazol-2-yl]-5-[(3S)-tetrahydrofuran-3-ylmethoxy]-N-{(1R)-1-[2-(trifluoromethyl)pyrimidin-5-yl]ethyl}benzamide], the IC50 stood at 26 nM on human P2X3 receptor and 198 nM on human P2X2/3 receptor.

The values are drawn from US10174016B2 (BAYER AKTIENGESELLSCHAFT, priority 2014, dated 2019).
